The values below come from PubChem BioAssay (NCI).

Structures are written as SMILES.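 Compound exposure: 48 hours, 5 concentrations, 96-well plates. GI50: concentration for 50% inhibition of growth. At the TGI there is no net growth.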 Bounds are passed on as bounds.

Holding throughout (experiment): NCI-60 cell line screen, 48 h
Assay [1] relates to 786-0 renal.
In assay [2] the test system is CCRF-CEM leukemia.
Assay [3] has as its system COLO 205 colon.
Assay [4] deals with HCT-15 colon.
In assay [5] the test system is NCI-H23 lung.
The subject of assay [6] is OVCAR-4 ovarian.
Assay [7] concerns SF-295 CNS.
Assay [8] relates to SNB-19 CNS.
Assay [9] concerns SR leukemia.
Assay [10] has as its system UACC-62 melanoma.

In the case of `COC(=O)c1c(-c2ccccc2)csc1NC(=O)c1c(-c2ccccc2)noc1C`, the GI50 in assay [1] is 1.34 µM; in assay [2], 1.77 µM; in assay [3], 1.21 µM; in assay [4] it was 0.0809 µM; in [5] it was above 29.7 µM; in [6], 5.38 µM. In addition, the GI50 in assay [7] is 0.598 µM; in [8] it was 1.07 µM; in [9] it was 0.282 µM; in assay [10] it was 0.78 µM. The TGI in assay [1], in assay [2], in [3], in assay [4], in assay [5] and in [6] was above 100 µM throughout. Besides, the TGI is above 21.5 µM in [7], above 100 µM in assay [8], above 100 µM in assay [9] and above 100 µM in assay [10].
Turning to `Cc1nc2cc(O)c(O)cc2cc1Oc1ccc(NC(=O)Nc2ccc(Cl)c(Cl)c2)cc1`, the GI50 in assay [1] is 7.68 µM; in [2], 6.19 µM; in assay [3], 10.3 µM; in assay [4], 5.47 µM; in [5], 6.97 µM; in [6] it was 9.73 µM. The GI50 in assay [7] was 11.4 µM; in assay [8], 10.1 µM; in [9] it was 1.56 µM; in assay [10] it was 5.67 µM. Besides, the TGI is 18.6 µM in [1]; 21.8 µM in assay [2]; above 32.5 µM in assay [3]; above 32.5 µM in assay [4]; 19.6 µM in [5]; above 32.5 µM in assay [6]. For the same molecule, the TGI in assay [7] was above 32.5 µM; in assay [8], above 32.5 µM; in assay [9] it was 12.3 µM; in assay [10], 11.2 µM.
`COc1ccc(C(=O)Nc2cccc(C3CC(=O)c4c(cc(OC)c(OC)c4OC)O3)c2)cc1` (centres undefined): the GI50 in assay [1] is 0.795 µM; in [2], 0.426 µM; in assay [3], 2.39 µM; in [4], 0.475 µM; in assay [5], 2.63 µM; in [6], 3.11 µM. The GI50 in assay [7] is 1.72 µM; in assay [8] it was 1.01 µM; in assay [9], 0.171 µM; in assay [10], 0.557 µM. Further, the TGI is above 100 µM in [1]; above 100 µM in assay [2]; 6.57 µM in [3]; above 100 µM in assay [4]; above 100 µM in assay [5]; 30.7 µM in assay [6]. The TGI in assay [7] was 63.8 µM; in assay [8] it was above 100 µM; in assay [9], above 100 µM; in assay [10], 10.8 µM.
Turning to `Cc1c2c(nn1-c1ccc(S/N=C3\SCC(=O)CN3c3ccccc3)cc1)-c1ccccc1CC2`, the GI50 is 13.3 µM in assay [1]; 28.1 µM in [2]; above 50 µM in [3]; 21.2 µM in [4]; 32.3 µM in [5]; 37.6 µM in assay [6]. Further, the GI50 was above 50 µM in [7], above 50 µM in [8], 1.88 µM in assay [9] and 16 µM in [10]. Besides, the TGI in assay [1], in assay [2], in [3], in assay [4], in assay [5] and in assay [6] was above 50 µM in each case. Moreover, the TGI in [7], in [8], in [9] and in assay [10] was above 50 µM in each case.
For `C=C1C(=O)O[C@H]2[C@H]1CC/C(COC(=O)CCC(=O)OC/C1=C/CC[C@@]3(C)O[C@H]3[C@H]3OC(=O)C(=C)[C@@H]3CC1)=C\CC[C@@]1(C)O[C@@H]21`, the GI50 was 1.46 µM in assay [1]; 0.251 µM in assay [2]; 0.455 µM in assay [3]; 1.54 µM in assay [4]; 2.9 µM in assay [5]; 2.07 µM in assay [6]. The GI50 was 10.5 µM in assay [7], 8.46 µM in [8], 0.345 µM in assay [9] and 1.86 µM in [10]. Also, the TGI in assay [1] was 3.12 µM; in assay [2], 0.778 µM; in assay [3] it was 1.74 µM; in assay [4], 3.58 µM; in assay [5], 11.2 µM; in assay [6] it was 5.9 µM. For the same molecule, the TGI is 25.3 µM in assay [7], 25 µM in assay [8], 2.52 µM in [9] and 6.55 µM in [10].
As to `O=Cc1cc(O)c(O)c(O)c1-c1c(C=O)cc(O)c(O)c1O`, the TGI in assay [1], in assay [2], in [3], in assay [4], in assay [5] and in assay [6] was above 100 µM each time. Moreover, the TGI in assay [7], in assay [8], in [9] and in assay [10] was above 100 µM throughout.
Take `O=C(O)/C(Cl)=C(/Cl)C(=O)Nc1cccc(Cl)c1`: the TGI in [1] turned out to be 31.8 µM; in assay [2], 19 µM; in assay [3], 23.3 µM; in assay [4] it was 34.9 µM; in assay [5], 36.4 µM; in assay [6], 33.6 µM. Further, the TGI in assay [7] is above 62.2 µM; in assay [8], above 92.5 µM; in assay [9] it was 26.4 µM; in [10], 31.7 µM.
As to `Cc1cc(Cl)ccc1N1C(=O)C(=O)C(c2nc3ccccc3s2)C(=O)C1=O`, the TGI in assay [1], in assay [2], in assay [3], in assay [4], in [5] and in assay [6] was above 100 µM in each case. Also, the TGI in assay [7], in assay [8], in assay [9] and in assay [10] was above 100 µM in each case.
For the molecule `O=C1NC(=NCc2ccccn2)S/C1=C\c1ccc2ncccc2c1`, the GI50 in assay [1] was 13.4 µM; in assay [2], 10.7 µM; in assay [3], 7.68 µM; in assay [4], 6.86 µM; in [5] it was 12.1 µM; in [6], 9.74 µM. The GI50 in [7] was 14.7 µM; in assay [8], 10.7 µM; in assay [9], 6 µM; in assay [10], above 17.5 µM. For the same molecule, the TGI in assay [1] was above 25 µM; in assay [2], above 25 µM; in assay [3] it was above 25 µM; in assay [4] it was above 25 µM; in [5], above 25 µM; in assay [6], 24.7 µM. Moreover, the TGI in assay [7] was above 25 µM; in assay [8] it was above 25 µM; in [9], 24.8 µM; in assay [10], above 25 µM.
Consider `CSC(=S)N/N=C(\C)c1ccccn1`, for which the GI50 in [1] is 0.315 µM; in assay [2] it was below 0.01 µM; in [3], below 0.01 µM; in assay [4], 0.16 µM; in [5], 0.119 µM; in assay [6] it was below 0.0169 µM. Also, the GI50 in assay [7] was 0.255 µM; in [8] it was 0.77 µM; in [9], below 0.033 µM; in assay [10] it was 0.181 µM. In addition, the TGI in assay [1] turned out to be 12.5 µM; in [2] it was 1.68 µM; in assay [3] it was 11.9 µM; in assay [4] it was 24.5 µM; in assay [5] it was 26.5 µM; in assay [6] it was 10.6 µM. Besides, the TGI is 8.38 µM in assay [7], above 72.3 µM in assay [8], 6.46 µM in assay [9] and 0.955 µM in assay [10].
On to `Oc1ccc2ccccc2c1/C=N\Nc1ccccn1`, for which the GI50 was 0.618 µM in [1]; 0.328 µM in assay [2]; 27.6 µM in [3]; 0.511 µM in [4]; 0.539 µM in assay [5]; 1.24 µM in [6]. The GI50 in [7] was 0.64 µM; in assay [8], 1.33 µM; in [9], 0.357 µM; in [10] it was 0.692 µM. Besides, the TGI is 4.58 µM in assay [1]; above 100 µM in assay [3]; above 100 µM in [4]; above 100 µM in [5]; above 100 µM in [6]; 2 µM in assay [7]. The TGI in assay [8] is above 100 µM; in assay [9], above 100 µM; in [10], 13.1 µM.
On to `CCOc1ccc2c(c1)/C(=C\C=C\C1CC(C)C3CC(OCC)CCC3N1CC)CC(C)N2CC` (centres undefined), for which the GI50 in [1] was 1.49 µM; in assay [2], 0.472 µM; in assay [3], 1.36 µM; in [4], 1.16 µM; in assay [5], 0.567 µM; in assay [6], 0.459 µM. Besides, the GI50 in [7] was 0.418 µM; in assay [8] it was 0.512 µM; in assay [9], 0.412 µM; in [10], 1.26 µM. The TGI in assay [1] stood at 2.98 µM; in assay [2], 2.71 µM; in [3] it was 2.82 µM; in assay [4] it was 2.77 µM; in [5], 2.38 µM; in assay [6] it was 2 µM. The TGI amounted to 1.68 µM in assay [7], 1.97 µM in [8], 2.75 µM in [9] and 2.77 µM in [10].
